Where a name gives a salt, the structure may show the parent alone.
How the values were obtained:
GK diabetic rats = experiment: Glucose tolerance test in GK diabetic rats (Example 2); format: in vivo, rat; conditions: for glucose levels in glucose tolerance test (in words): GK diabetic rats; for Glucose tolerance test, plasma glucose, Fasting / Glucose tolerance test, plasma glucose, 0.5 hour / Glucose tolerance test, plasma glucose, 1 hour / Glucose tolerance test, plasma glucose, 2 hours / Glucose tolerance test, plasma glucose, 3 hours: Mean ± STD, DC 22.5 mg/kg BW, Metformin 34 mg/kg BW by gavage; for Glucose tolerance test, plasma glucose, Fasting: 20 days (combination in second 10 days); for Glucose tolerance test, plasma glucose, 0.5 hour / Glucose tolerance test, plasma glucose, 1 hour / Glucose tolerance test, plasma glucose, 2 hours / Glucose tolerance test, plasma glucose, 3 hours: after glucose 2 g/kg BW, 20 days
Description: Food and water were provided ad libitum.
The 36 GK rats were divided into 4 groups based on body weight (BW) and plasma glucose level. […] All animals were treated at 10:00 for 20 days.
(§1) The four groups of animals were kept in the same room (temp 23±3° C., relative humidity 65±1%) in different cages with wire mesh bottoms to reduce coprophagia throughout the experiment. The rats were subjected to fasting overnight from 10:00 pm to 09:30 of the following day before being subjected to a glucose tolerance test. The rats were treated with glucose 2 g/kg BW in 2 ml tap water at 09:30 for the glucose tolerance test and the blood was collected from the tail vein at 0.5, 1, 2, and 3 hours after glucose injection. Plasma glucose concentrations were determined by Glucotrendr2 equipment (Roche Diagnostics, Basel, Switzerland). Plasma insulin concentrations were determined by radioimmunoassay (Insulin RIA Kit, NO:0410, purchased from Shanghai Radioimmunoassay Research Institution). […] The “p” value is the comparison with the control group.

adiponectin = experiment: Adiponectin level in GK diabetic rats (Example 2); format: in vivo, rat; conditions: for Adiponectin: Mean ± STD, DC 22.5 mg/kg BW, Metformin 34 mg/kg BW
Description: The 36 GK rats were divided into 4 groups based on body weight (BW) and plasma glucose level. Group 1 (control, n=10) was treated with saline by gavage (2 ml/rat) Group 2 (DC, n=6) was treated with cysteamine hydrochloride by gavage (22.5 mg/kg BW in 2 ml tap water); Group 3 (Metformin, Met, n=10) was treated with Metformin by gavage (34 mg/kg BW in 2 ml tap water); Group 4 (Met+DC, n=10) was treated with Metformin 34 mg/kg BW/day in 2 ml tap water for the first 10 days and then was treated with both cysteamine hydrochloride 22.5 mg/kg BW plus Metformin 34 mg/kg BW in 2 ml tap water for the second 10 days. All animals were treated at 10:00 for 20 days.
as §1

[1] = test system: glucose transporter (glut4); experiment: Glucose transporter (glut4) expression in tissues of GK diabetic rats (Example 2); format: in vivo, rat; conditions: for expression of total glut4 in liver, muscles, adipocytes (in words): GK rats; for glut4 expression, adipocyte, fold changes compared with control level / glut4 expression, liver, fold changes compared with control level / glut4 expression, muscle, fold changes compared with control level: Mean ± STD, GK diabetic rats
Description: (§2) The 36 GK rats were divided into 4 groups based on body weight (BW) and plasma glucose level. […] All animals were treated at 10:00 for 20 days. […] Plasma glucose concentrations were determined by Glucotrendr2 equipment (Roche Diagnostics, Basel, Switzerland). Plasma insulin concentrations were determined by radioimmunoassay (Insulin RIA Kit, NO:0410, purchased from Shanghai Radioimmunoassay Research Institution). The effects on plasma glucose level are shown in Table 4, the effects on plasma insulin and adiponectin levels are shown in Table 5, and the effects on different tissues are shown in Table 6. The “p” value is the comparison with the control group.

[2] = test system: Goto-Kakizaki Wistar rats (GK rats); experiment: Oral glucose tolerance test and starving plasma glucose in GK rats (Example 1); format: in vivo, rat
Description: Nineteen male Goto-Kakizaki Wistar rats (GK rats) with weights of 300±20 g were kept in steel cages, 3-4 rats per cage. The cages were changed every two days. Indoor temperature and relative humidity was kept at 23±3° C. and 65±1% respectively. Feed and drinking water was provided. GK rats were permitted a one-month period for adaptation.
One day prior to experimentation, at 17:00, all of the feed was removed from all groups, but not the drinking water. On the second day, at 09:30, starving plasma glucose was measured for all GK rats. At 10:00, glucose tolerance test (2 g/kg BW) was performed and the plasma glucose level was measured as well for all GK rats. On the third day, the GK rats of the control group were orally administered a saline solution (2 ml/rat) and the GK rats in treatment I and II groups were orally administered a solution of Metformin (17 mg/kg body weight (BW), 2 ml once pre day at 09:30). This regimen was performed for the following several days. On the ninth day, starving plasma glucose was measured and oral glucose tolerance test was performed again for all GK rats in all groups.
On the tenth day, the regimen for the GK rats in the treatment II group was changed to an oral administration of Metformin with cysteamine hydrochloride (Metformin 17 mg/kg BW, cysteamine hydrochloride 15 mg/kg BW) for the following 6 days, while the regimen for the control group and the treatment I group remained unchanged. This regimen was performed for six days.
Six days following the change in regimen, starving plasma glucose was measured and glucose tolerance tests were performed, and blood and tissue samples were collected (liver, duodenum, pancreas gland, fat, and muscle) for all GK rats in all groups. Blood samples were stored at 4° C. for three hours and centrifuged for ten minutes at 3500 rpm. Then, the serum was collected and stored at −20° C. Tissue samples were placed in liquid nitrogen once collected and then stored in −80° C.
The glucose tolerance tests that were performed included the steps of starving the GK rats overnight. Next day at 09:30, starving plasma glucose was measured. At 10:00, oral administration of a glucose solution (2 g/kg BW) was performed. Blood samples were collected via tail vein at 0, 0.5, 1, 2, and 3 hours and then performed with the plasma glucose testing equipment.

diabetic patients = experiment: Open-label randomized trial in patients with diabetes type II (Example 3); format: in vivo, human
Description: The cysteamine alone (DC) group was treated with 540 mg/day of cysteamine hydrochloride.

Insulin = experiment: Plasma insulin by radioimmunoassay in GK diabetic rats (Example 2); format: in vivo, rat; conditions: for Fasting Insulin: Mean ± STD, DC 22.5 mg/kg BW, Metformin 34 mg/kg BW
Description: as §2

[3] = late-phase, Metformin 17 mg/kg BW, cysteamine hydrochloride 15 mg/kg BW oral for 6 days
[4] = mid-phase, Treatment I group, 6 days oral Metformin 17 mg/kg BW, glucose 2 g/kg BW
[5] = mid-phase, Treatment II group (Metformin 17 mg/kg BW only, before cysteamine hydrochloride was added)
[6] = cysteamine hydrochloride 540 mg/day, two months
[7] = pre-treatment minus post-treatment

SMILES: CN(C)C(=N)N=C(N)N [Metformin]
- glucose levels in glucose tolerance test (in words) (GK diabetic rats): statistically significantly different
- Glucose tolerance test, plasma glucose, Fasting (GK diabetic rats): 5.53 ± 0.53 mmol/L
- Glucose tolerance test, plasma glucose, 0.5 hour (GK diabetic rats): 15.24 ± 1.34 mmol/L
- Glucose tolerance test, plasma glucose, 1 hour (GK diabetic rats): 13.98 ± 0.95 mmol/L
- Glucose tolerance test, plasma glucose, 2 hours (GK diabetic rats): 9.62 ± 0.83 mmol/L
- Glucose tolerance test, plasma glucose, 3 hours (GK diabetic rats): 7.71 ± 1.37 mmol/L
- adiponectin (in words) (adiponectin): not
- Adiponectin (adiponectin): 3917 ± 416 ng/mL
- expression of total glut4 in liver, muscles, adipocytes (in words) [1]: increased, but not significantly
- glut4 expression, adipocyte, fold changes compared with control level [1]: 2.14 ± 1.39 fold
- glut4 expression, liver, fold changes compared with control level [1]: 2.43 ± 1.85 fold
- glut4 expression, muscle, fold changes compared with control level [1]: 1.38 ± 0.67 fold
- duodenal plasma glucose levels and insulin resistance (in words) ([2]; GK rats, oral administration): to some extent, lowers
- Glucose tolerance test, plasma glucose, 0.5 hour [2, 3]: 12.98
- Glucose tolerance test, plasma glucose, 1 hour [2, 3]: 13.42
- Glucose tolerance test, plasma glucose, 2 hours [2, 3]: 8.6
- Glucose tolerance test, plasma glucose, 3 hours [2, 3]: 6.67
- Glucose tolerance test, plasma glucose, Starving [2, 3]: 4.75
- Glucose tolerance test, plasma glucose, Starving ([2]; mid-phase, Treatment I group, 6 days oral Metformin 17 mg/kg BW): 4.98
- Glucose tolerance test, plasma glucose, 0.5 hour [2, 4]: 15.68
- Glucose tolerance test, plasma glucose, 1 hour [2, 4]: 15.93
- Glucose tolerance test, plasma glucose, 2 hours [2, 4]: 10.55
- Glucose tolerance test, plasma glucose, 3 hours [2, 4]: 8.5
- Glucose tolerance test, plasma glucose, 0.5 hour [2, 5]: 15.65
- Glucose tolerance test, plasma glucose, 1 hour [2, 5]: 15.8
- Glucose tolerance test, plasma glucose, 2 hours [2, 5]: 10.55
- Glucose tolerance test, plasma glucose, 3 hours [2, 5]: 8.37
- Glucose tolerance test, plasma glucose, Starving [2, 5]: 5.03
- insulin-like growth factor 1 (IGF1) (in words) (diabetic patients): decrease
- insulin levels (in words) (Insulin): decreased, but not statistically significant
- Fasting Insulin (Insulin): 18.75 ± 3.98 IU/L

SMILES: NCCS [cysteamine hydrochloride]
- glucose levels in glucose tolerance test (in words) (GK diabetic rats): did not affect
- Glucose tolerance test, plasma glucose, Fasting (GK diabetic rats): 5.80 ± 0.36 mmol/L
- Glucose tolerance test, plasma glucose, 0.5 hour (GK diabetic rats): 16.68 ± 1.1 mmol/L
- Glucose tolerance test, plasma glucose, 1 hour (GK diabetic rats): 15.68 ± 0.8 mmol/L
- Glucose tolerance test, plasma glucose, 2 hours (GK diabetic rats): 11.00 ± 0.8 mmol/L
- Glucose tolerance test, plasma glucose, 3 hours (GK diabetic rats): 8.33 ± 0.64 mmol/L
- adiponectin (in words) (adiponectin): significantly increased
- Adiponectin (adiponectin): 4318 ± 590 ng/mL
- expression of total glut4 in liver, muscles, adipocytes (in words) [1]: significantly increase
- glut4 expression, adipocyte, fold changes compared with control level [1]: 2.7 ± 1.16 fold
- glut4 expression, liver, fold changes compared with control level [1]: 3.77 ± 3.15 fold
- glut4 expression, muscle, fold changes compared with control level [1]: 1.5 ± 0.74 fold
- C peptide (CP) (in words) (diabetic patients): decreases significantly
- HOMA (Homeostasis Model Assessment) (in words) (diabetic patients): decreases significantly
- blood uric acid (UA) levels (in words) (diabetic patients): decreases significantly
- fasting insulin (FINS) (in words) (diabetic patients): decreases significantly
- insulin-like growth factor 1 (IGF1) (in words) (diabetic patients): decreases significantly
- microalbuminuria (in words) (diabetic patients): obvious but not statistically significantly
- 24 h Microalbuminuria, Post-treatment (diabetic patients; [6]): 30.97 ± 25.12
- FBS (fasting blood sugar), Post-treatment (diabetic patients; [6]): 8.21 ± 2.43
- FCP (C peptide), Post-treatment (diabetic patients; [6]): 557 ± 119
- FINS (fasting insulin), Post-treatment (diabetic patients; [6]): 13.25 ± 6.36
- HOMA (Homeostasis Model Assessment), Post-treatment (diabetic patients; [6]): 5.43 ± 3.19
- IGF, Post-treatment (diabetic patients; [6]): 44.37 ± 7.28
- UA (blood uric acid), Post-treatment (diabetic patients; [6]): 359 ± 60.16
- 24 h Microalbuminuria, Paired Difference (diabetic patients; [7]): 11.77 ± 40.73
- FBS, Paired Difference (diabetic patients; [7]): −0.69 ± 2.11
- FCP, Paired Difference (diabetic patients; [7]): 182 ± 164
- FINS, Paired Difference (diabetic patients; [7]): 22.14 ± 19.39
- HOMA, Paired Difference (diabetic patients; [7]): 6.51 ± 4.94
- IGF, Paired Difference (diabetic patients; [7]): 4.99 ± 5.12
- UA, Paired Difference (diabetic patients; [7]): 29.5 ± 37.87
- insulin levels (in words) (Insulin): did not affect
- Fasting Insulin (Insulin): 22.46 ± 2.65 IU/L

Reference: patent US8188151B2, “Methods for treating diabetes” (Omega Bio-Pharma (I.P.3) Limited, priority 2003, dated 2012)
